# From patent US20200016200A1, “MODULATING CYTOTOXIC CELL LYTIC GRANULE POSITIONING TO PROMOTE DIFFUSE KILLING IN CELLULAR THERAPIES” (Baylor College of Medicine, priority 2016, published 2020)
# “Also recorded” adds a separate entry of the source.
# Key:
# CD19 CAR T cell = assay: Live cell confocal microscopy of CD19 CAR T cell conjugated with a Daoy-CD19 target cell; assay type: cell-based
# Procedure: FIG. 25. […] Live cell confocal microscopy of a ciliobrevin D-treated CD19 CAR T cell conjugated with a Daoy-CD19 target cell. Cell mixtures were imaged every 90 sec for 60 min. Time point 1 (T1) represents the time when imaging started. Target cell death occurred rapidly at T5 (7.5 min) as indicated by uptake of SYTOX Blue viability dye and loss of adherence. […] Red, LysoTracker Red (lytic granules); blue, SYTOX Blue viability dye; green, CD19 CAR.
# Similarly, compared to DMSO, ciliobrevin D-treated CD19 CAR NK cells lyse approximately 24%, 39% and 40% more bystander cells at the concentration of 12.5, 25 and 50 μM, respectively (FIG. 22). […] FIG. 23 and FIG. 24 are time-lapse images of videos of control ([…]) and ciliobrevin D-treated ([…]) CD19 CAR T cells. […] In the control group, however, lytic granules converge immediately upon interacting with the target cell and remain tightly clustered until target is killed by the CD19 CAR T cell as indicated by uptake of the SYTOX Blue viability dye.
# NK92 cells [1] = assay: Lytic granule convergence, fixed cell confocal microscopy (granule to MTOC distance); assay type: cell-based, human; conditions: NK92 conjugated with K562 target cells; ciliobrevin D 100 μM vs vehicle
# Description: (§1) In previous studies, it was shown that granule convergence is dynein-dependent (Mentlik et al., 2010). To further characterize this, regarding the role for convergence in promoting killing efficiency and protecting bystanders, a small molecule dynein inhibitor ciliobrevin D (Firestone et al., 2012) was used to try and block the convergence of lytic granules to the MTOC from their dispersed localization in the cytoplasm. This would allow us to manipulate granule trafficking via blocking the motor protein function, instead of altering activating signal input. YTS, NK92 or eNK cells were treated with either ciliobrevin D or vehicle and conjugated with their respective target cells. […] As a separate measure of granule dispersion, the standard deviation of the granule to MTOC distance was calculated to show the degree of scatter of individual lytic granules. […] CD107a staining was additionally performed to test whether ciliobrevin D treatment affected the exocytosis of lytic granules; the proportion of eNK cells that degranulated after treatment with ciliobrevin D increased (FIG. 13A), whereas in the NK cell lines it decreased (FIG. 13B-13C). In all cases, however, degranulation still occurred in the presence of ciliobrevin D. […]
# (§2) Raw image sequences were analyzed using Volocity software. For lytic granules, the centroid of individual lytic granule was designated automatically based on the fluorescence intensity of the corresponding staining (LysoTracker Red or perforin) (Mentlik et al., 2010). For MTOC, in fixed-cell confocal experiments, the point with the highest fluorescence intensity of α-tubulin staining was denoted as the localization of MTOC; in live-cell experiments, the geometric centroid of all the lytic granules in the cell was used to provide a measure of proximity of lytic granule regions. Lytic granule convergence to the MTOC or to the centroid of all granules was measured as previously described (Mentlik et al., 2010). […]
# eNK cells [2] = assay: as above; assay type: cell-based, human; conditions: eNK conjugated with K562 target cells; ciliobrevin D 100 μM vs vehicle
# Description: as §1, §2
# YTS cells [3] = assay: as above; assay type: cell-based, human; conditions: YTS conjugated with 721.221 target cells; ciliobrevin D 100 μM vs vehicle
# Description: as §1, §2
# NK92 cells [4] = assay: Flow cytometry-based degranulation assay (CD107a); assay type: cell-based, human; conditions: NK92 with K562 targets, 2 hours, vs DMSO
# Procedure: (§3) FIGS. 13A-13E. The effect of ciliobrevin D on degranulation and the increase of bystander killing by NK cells. Flow cytometry-based degranulation assay of NK cells treated with ciliobrevin D or DMSO as vehicle control. 721.221 cells were used as targets for YTS cells and K562 cells were used as targets for NK92 and eNK cells. DMSO or ciliobrevin D-treated NK cells were mixed with their respective target cells and co-cultured at 37° C. for 2 hours in the presence of anti-CD107a antibody, GolgiStop (BD) and analyzed using flow cytometry. Numbers in the representative flow cytometry plots indicate the percentage of CD107a positive eNK (13A), YTS (13B), or NK92 (13C) cells. Standard 4-hour 51Cr cytotoxicity assay of NK cells treated with ciliobrevin D (100 μM) or DMSO control. NK resistant Raji cells were used as innocent bystander cells. […] Bystander killing of Raji cells by YTS (13D, red) and NK92 (13E, red) cells both increased with ciliobrevin D treatment. Representative experiments from three independent experiments for YTS and NK92 cells were shown.
# (§4) YTS-CD16, NK92-CD16 and eNK cells were labeled with CellTrace CFSE for 10 min at room temperature. S2 and S2-IC1 cells were pre-incubated with anti-S2 polyclonal IgG antibody at a final dilution of 1:1000 for 30 min at room temperature and washed three times. S2, S2-IgG, S2-IC1 and S2-IC1-IgG cells were then labeled with cell proliferation dye eFluor 670 for 5 min at room temperature. […] and 2×10^5 target cells were mixed in 200 μl complete R10 and incubated for 2 hours at 37° C. in the presence of anti-CD107a antibody and GolgiStop (BD), fixed with 1% paraformaldehyde in PBS and analyzed as described in flow-based conjugation assay.
# (§5) Where applicable, YTS, NK92 and eNK cells were pretreated with […] ciliobrevin D (Millipore) for 30 min then washed. DMSO was used as the vehicle control for all inhibitor experiments. The inhibitor was also added into the co-culture with target cells.
# eNK cells [5] = assay: Flow cytometry-based degranulation assay (CD107a); assay type: cell-based, human; conditions: eNK with K562 targets, 2 hours, vs DMSO
# Procedure: as §3, §4, §5
# YTS cells [6] = assay: Flow cytometry-based degranulation assay (CD107a); assay type: cell-based, human; conditions: YTS with 721.221 targets, 2 hours, vs DMSO
# Procedure: as §3, §4, §5
smiles,measurement,setting,value
"N#CC(C(=O)c1ccc(Cl)cc1Cl)=C1NC(=O)c2ccc(Cl)cc2N1 [ciliobrevin D, 2-(7-chloro-4-oxo-3,4-dihydroquinazolin-2(1H)-ylidene)-3-(2,4-dichlorophenyl)-3-oxopropanenitrile]","time of target cell death (SYTOX Blue uptake, loss of adherence)","CD19 CAR T cell; ciliobrevin D-treated CD19 CAR T cell, Daoy-CD19 target",7.5 min
same,lytic granule positioning during conjugation and killing,"CD19 CAR T cell; ciliobrevin D-treated, imaged every 90 sec for 60 min",dispersedly localized lytic granules throughout the video; also recorded: remained dispersed throughout the video
same,lytic granule convergence as determined by mean granule to MTOC distance,NK92 cells [1],blocked lytic granule convergence
same,lytic granule convergence as determined by mean granule to MTOC distance,eNK cells [2],blocked lytic granule convergence
same,lytic granule convergence as determined by mean granule to MTOC distance,YTS cells [3],blocked lytic granule convergence
same,proportion of cells that degranulated (CD107a positive),NK92 cells [4],decreased
same,proportion of cells that degranulated (CD107a positive),eNK cells [5],increased
same,proportion of cells that degranulated (CD107a positive),YTS cells [6],decreased
